36 molecules from US10633338B2, “Binding Function 3 (BF3) site compounds as therapeutics and methods for their use” (THE UNIVERSITY OF BRITISH COLUMBIA, priority 2014, dated 2020) can be followed below.

Where two headings read alike, the source gives them in different places.

One assay concerns PSA. Put plainly: Prostate Surface Antigen (PSA) assay, PSA excreted into the media. The format is cell-based, human. The following applies: same plates as eGFP assay. The protocol: The evaluation of PSA excreted into the media was performed in parallel to the eGFP assay using the same plates (see above description). After the cells were incubated for 3 days 150 μl of the media was taken from each well, and added to 150 μl of PBS.

The next assay addresses T1, androgen receptor (AR) (Homo sapiens, UniProt P10275, T878A).
T1 construct: stably transfected eGFP-expressing LNCaP human prostate cancer cells (LN-ARR2PB-eGFP) containing an androgen responsive probasin-derived promoter; endogenous in cells; host or cells: LNCaP (LN-ARR2PB-eGFP)
T1 sequence (P10275 1-920 T878A): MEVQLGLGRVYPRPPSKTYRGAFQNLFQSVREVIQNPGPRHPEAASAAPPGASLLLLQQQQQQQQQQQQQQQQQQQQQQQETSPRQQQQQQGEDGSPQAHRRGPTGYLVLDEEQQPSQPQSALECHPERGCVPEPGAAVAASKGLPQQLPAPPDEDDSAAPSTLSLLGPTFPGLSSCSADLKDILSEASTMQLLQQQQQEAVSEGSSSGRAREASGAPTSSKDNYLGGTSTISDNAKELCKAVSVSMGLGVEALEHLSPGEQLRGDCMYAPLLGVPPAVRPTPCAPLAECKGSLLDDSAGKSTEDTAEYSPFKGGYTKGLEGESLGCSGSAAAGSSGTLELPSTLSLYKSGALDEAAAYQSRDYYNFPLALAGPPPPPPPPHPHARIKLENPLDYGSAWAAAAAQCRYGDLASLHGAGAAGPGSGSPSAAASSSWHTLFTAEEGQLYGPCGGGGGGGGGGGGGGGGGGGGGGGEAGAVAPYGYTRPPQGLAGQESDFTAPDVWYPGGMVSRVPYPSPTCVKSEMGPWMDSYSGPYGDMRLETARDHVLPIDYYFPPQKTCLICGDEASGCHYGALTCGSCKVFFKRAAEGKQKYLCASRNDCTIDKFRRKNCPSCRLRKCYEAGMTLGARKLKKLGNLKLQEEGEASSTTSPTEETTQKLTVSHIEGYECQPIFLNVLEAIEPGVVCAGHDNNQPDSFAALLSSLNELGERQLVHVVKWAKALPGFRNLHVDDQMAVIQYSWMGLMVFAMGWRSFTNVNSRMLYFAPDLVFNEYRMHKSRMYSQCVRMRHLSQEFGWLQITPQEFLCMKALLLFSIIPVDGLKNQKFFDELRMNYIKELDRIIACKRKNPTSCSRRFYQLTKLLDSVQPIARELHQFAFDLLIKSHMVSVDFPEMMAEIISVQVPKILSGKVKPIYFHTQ
Put plainly: eGFP cellular AR transcription assay. The format is cell-based. Put shortly: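 AR transcriptional activity is read as eGFP expression from a probasin-derived androgen-responsive promoter. Compound titrated 0-100 μM in the presence of 0.1 nM R1881; 35,000 cells/well.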

[1] abbreviates: PSA excreted into media, 3 days incubation.
Setting [2] is: LN-ARR2PBeGFP LNCaP cells, 0.1 nM R1881, 3 days incubation.
The mark [3] stands for this setting: Homo sapiens, 72 h, PSA excreted into media, 3 days incubation, read-out: PSA IC50.
The mark [4] stands for this setting: LN-ARR2PBeGFP LNCaP cells, 0.1 nM R1881, 3 days incubation, read-out: eGFP IC50.
Setting [5] is: Homo sapiens, 72 h, media after 3 days, read-out: IC50 (PSA).

For the molecule `Cc1ccc2ccc(Cl)nc2c1` [Compound 13727], the “PSA IC50” value in the assay with PSA (setting [1]) is on record as “Inactive”. The “eGFP IC50” value on androgen receptor (AR) (setting [2]) was “Inactive”.

For `Fc1ccc2ccc(Cl)nc2c1` [Compound 13728], the “PSA IC50” value in the assay with PSA (setting [1]) is reported as “Inactive”. In addition, the “eGFP IC50” value at androgen receptor (AR) (setting [2]) is “Inactive”.

Regarding `Fc1cccc2ccc(Cl)nc12` [Compound 13729], the “PSA IC50” value in the assay on PSA (setting [1]) is “Inactive”. The “eGFP IC50” value on androgen receptor (AR) (setting [2]) is “Inactive”.

Broadly, the IC50 is the point on the concentration scale where inhibition reaches its midpoint. As to `N#Cc1cc(F)cc2c(-c3ccc4ccc(F)cc4n3)c[nH]c12` [Compound 13730], the IC50 in the assay with PSA (setting [3]) was found to be 198 nM; at androgen receptor (AR) (setting [4]), 149 nM.

For `CNC(=O)c1cccc2nc(-c3c[nH]c4c(C#N)cc(F)cc34)ccc12` [Compound 13731], the 50% inhibitory concentration (IC50) in the assay with PSA (setting [3]) turned out to be 255 nM; at androgen receptor (AR) (setting [4]), 304 nM.

As for `Cc1cccc2c(-c3ccc(-c4ccccc4)cc3)c[nH]c12` [Compound 13733], the IC50 in the assay on PSA (setting [3]) was determined as 919 nM; at androgen receptor (AR) (setting [4]), 3810 nM.

For the molecule `COC(=O)c1cccc2c(-c3ccc(Br)cc3)c[nH]c12` [Compound 13736], the 50% inhibitory concentration (IC50) was 680 nM in the assay with PSA (setting [3]) and 620 nM on androgen receptor (AR) (setting [4]).

Turning to `O=[N+]([O-])c1cccc2c(-c3ccc(Br)cc3)c[nH]c12` [Compound 13738], the concentration for half-maximal inhibition (IC50) with PSA (setting [3]) turned out to be 62 nM; at androgen receptor (AR) (setting [4]), 83 nM.

With `FC(F)(F)c1ccc(-c2c[nH]c3ccccc23)nc1` [Compound 13741], the IC50 with PSA (setting [3]) and at androgen receptor (AR) (setting [4]) was 290 nM each time.

Regarding `Fc1ccc(-c2c[nH]c3ccccc23)nc1` [Compound 13742], the IC50 in the assay with PSA (setting [3]) stood at 200 nM; at androgen receptor (AR) (setting [4]) it was 220 nM.

For `FC(F)(F)c1ccc(-c2c[nH]c3ccccc23)cc1` [Compound 13743], the concentration for half-maximal inhibition (IC50) came out at 390 nM in the assay on PSA (setting [3]) and 380 nM at androgen receptor (AR) (setting [4]).

Consider `Cc1cccc2c(-c3ccc4cccnc4c3)c[nH]c12` [Compound 13744], for which the figures for the IC50 with PSA (setting [3]) and at androgen receptor (AR) (setting [4]) were 750 nM and 760 nM, respectively.

`FC(F)(F)c1ccccc1-c1c[nH]c2ccccc12` [Compound 13745]: the IC50 came to 950 nM with PSA (setting [3]) and 1010 nM on androgen receptor (AR) (setting [4]).

Regarding `NC(=O)c1cccc2nc(-c3c[nH]c4c(Cl)cc(F)cc34)ccc12` [Compound 13746], the “PSA IC50” value in the assay with PSA (setting [1]) was “Inactive”. Also, the “eGFP IC50” value on androgen receptor (AR) (setting [2]) is “Inactive”.

As to `NC(=O)c1cccc2nc(-c3c[nH]c4c(F)cc(F)cc34)ccc12` [Compound 13747], the “PSA IC50” value in the assay with PSA (setting [1]) is given as “Inactive”. Besides, the “eGFP IC50” value at androgen receptor (AR) (setting [2]) is listed as “Inactive”.

As for `Clc1cccc2nc(-c3c[nH]c4c(Cl)cccc34)ccc12` [Compound 13748], the “PSA IC50” value in the assay with PSA (setting [1]) is “Inactive”. Also, on androgen receptor (AR) (setting [2]), the “eGFP IC50” value is “Inactive”.

Take `Fc1ccc2nc(-c3c[nH]c4c(F)c(F)c(F)cc34)ccc2c1` [Compound 13749]: the figures for the IC50 in the assay with PSA (setting [3]) and at androgen receptor (AR) (setting [4]) were 220 nM and 290 nM, respectively.

With `Fc1cc2c(-c3ccc4c(Cl)cccc4n3)c[nH]c2c(F)c1F` [Compound 13750], the “PSA IC50” value in the assay with PSA (setting [1]) is “Inactive”. Besides, the “eGFP IC50” value at androgen receptor (AR) (setting [2]) was “Inactive”.

In the case of `Fc1cc2c(-c3ccc4c(F)cccc4n3)c[nH]c2c(F)c1F` [Compound 13751], the “PSA IC50” value in the assay on PSA (setting [1]) is recorded as “Inactive”. In addition, the “eGFP IC50” value at androgen receptor (AR) (setting [2]) is “Inactive”.

Regarding `Fc1cc(F)c2[nH]cc(-c3ccc4cccc(F)c4n3)c2c1F` [Compound 13752], the IC50 turned out to be 260 nM with PSA (setting [3]) and 370 nM at androgen receptor (AR) (setting [4]).

For `Fc1cc(F)c2[nH]cc(-c3ccc4c(Cl)cccc4n3)c2c1F` [Compound 13753], the IC50 in the assay on PSA (setting [3]) came out at 98 nM; at androgen receptor (AR) (setting [4]), 160 nM.

Consider `CNC(=O)c1ccc(Cl)c2nc(-c3c[nH]c4c(F)c(F)c(F)cc34)ccc12` [Compound 13755], for which the IC50 with PSA (setting [3]) and at androgen receptor (AR) (setting [4]) was 470 nM each time.

On to `Cc1cccc2c(-c3ccc4ncsc4c3)c[nH]c12` [Compound 13757], for which the “PSA IC50” value in the assay with PSA (setting [1]) was “Inactive”. For the same molecule, the “eGFP IC50” value at androgen receptor (AR) (setting [2]) was “Inactive”.

With `Cc1cccc2c(-c3ccc4scnc4c3)c[nH]c12` [Compound 13758], the “PSA IC50” value in the assay on PSA (setting [1]) is on record as “Inactive”. Moreover, the “eGFP IC50” value on androgen receptor (AR) (setting [2]) is “Inactive”.

On to `Cc1cccc2c(-c3ccc4ocnc4c3)c[nH]c12` [Compound 13759], for which the IC50 in the assay with PSA (setting [3]) was found to be 270 nM; on androgen receptor (AR) (setting [4]), 300 nM.

For the molecule `Cc1cccc2c(-c3nc4ccccc4s3)c[nH]c12` [Compound 13760], the concentration for half-maximal inhibition (IC50) in the assay with PSA (setting [3]) turned out to be 52 nM; on androgen receptor (AR) (setting [4]) it was 100 nM.

Regarding `Fc1ccc2nc(-c3c[nH]c4c(F)c(F)c(F)cc34)cnc2c1` [Compound 13762], the IC50 turned out to be 429 nM with PSA (setting [3]) and 479 nM on androgen receptor (AR) (setting [4]).

Turning to `Fc1ccc2c(-c3ccc4cccnc4c3)c[nH]c2c1` [Compound 13764], the concentration for half-maximal inhibition (IC50) turned out to be 82 nM in the assay on PSA (setting [3]), 82 nM in the assay on PSA (setting [5]) and 100 nM on androgen receptor (AR) (setting [4]).

As to `Cc1cccc2c(-c3ccc4cnccc4c3)c[nH]c12` [Compound 13765], the “PSA IC50” value in the assay with PSA (setting [1]) is on record as “Inactive”. The “IC50 (PSA)” value with PSA (media after 3 days) was “IC50 (PSA) = inactive”. Moreover, the “IC50 (eGFP)” value on androgen receptor (AR) (LN-ARR2PB-eGFP LNCaP cells, 0.1 nM R1881, 3 days, 0-100 μM compound) is “IC50 (eGFP) = inactive”. At androgen receptor (AR) (setting [2]), the “eGFP IC50” value was “Inactive”.

`Cc1cccc2c(-c3nc(Br)cs3)c[nH]c12` [Compound 13766]: the concentration for half-maximal inhibition (IC50) in the assay with PSA (setting [3]) was 20 nM; with PSA (setting [5]), 20 nM; at androgen receptor (AR) (LN-ARR2PB-eGFP LNCaP cells, 0.1 nM R1881, 3 days, 0-100 μM compound, read-out: IC50 (eGFP)), 45 nM; at androgen receptor (AR) (setting [4]) it was 45 nM.

As for `Fc1cc2c(-c3ccc4cccnc4c3)c[nH]c2c(F)c1F` [Compound 13770], the values for the IC50 in the assay with PSA (setting [3]) and at androgen receptor (AR) (setting [4]) were 17 nM and 100 nM, respectively.

`CNC(=O)c1cccc2nc(-c3c[nH]c4c(C)c(F)c(F)cc34)ccc12` [Compound 13771]: the IC50 in the assay with PSA (setting [3]) came to 90 nM; on androgen receptor (AR) (setting [4]) it was 200 nM.

Turning to `Fc1ccc2ccc(-c3c[nH]c4c(F)c(F)c(F)cc34)nc2c1` [Compound 13772], the figures for the 50% inhibitory concentration (IC50) in the assay on PSA (setting [3]) and on androgen receptor (AR) (setting [4]) were 172 nM and 200 nM, respectively.

Consider `Fc1cc2c(-c3ccc4cccc(Cl)c4n3)c[nH]c2c(F)c1F` [Compound 13773], for which the IC50 with PSA (setting [3]) was 303 nM; on androgen receptor (AR) (setting [4]), 300 nM.

On to `Fc1cc2c(-c3ccc4cccc(F)c4n3)c[nH]c2c(F)c1F` [Compound 13774], for which the IC50 came to 773 nM in the assay on PSA (setting [3]) and 700 nM on androgen receptor (AR) (setting [4]).

With `Fc1ccc2nc(-c3c[nH]c4c(F)c(F)c(F)cc34)ccc2c1` [Compound 13776], the IC50 in the assay with PSA (PSA excreted into media, 3 days incubation, read-out: PSA IC50) turned out to be 190 nM; on androgen receptor (AR) (setting [4]), 210 nM.
